From PMC6906348 (Therapeutic Advances in Medical Oncology, 2019)

Tested on: patients with advanced HCC
Test: Safety: adverse events
Type: in vivo, human
Conditions: for ALT increased (AE regardless of study drug relationship) / AST increased (AE regardless of study drug relationship) / Abdominal pain (AE regardless of study drug relationship) / Acute kidney injury (AE regardless of study drug relationship) / Anemia (AE regardless of study drug relationship) / Ascites (AE regardless of study drug relationship) / Blood bilirubin increased (AE regardless of study drug relationship) / Blood creatinine increased (AE regardless of study drug relationship) / Constipation (AE regardless of study drug relationship) / Decreased appetite (AE regardless of study drug relationship) / Diarrhea (AE regardless of study drug relationship) / Fatigue (AE regardless of study drug relationship) / Hyperbilirubinemia (AE regardless of study drug relationship) / Hypoalbuminemia (AE regardless of study drug relationship) / Insomnia (AE regardless of study drug relationship) / Leukopenia (AE regardless of study drug relationship) / Nausea (AE regardless of study drug relationship) / Number of patients with at least one event (AE regardless of study drug relationship) / Peripheral edema (AE regardless of study drug relationship) / Platelet count decreased (AE regardless of study drug relationship) / Pyrexia (AE regardless of study drug relationship) / Vomiting (AE regardless of study drug relationship) / Weight decreased (AE regardless of study drug relationship): patients n (%)
[1] = 300 mg capsule BID n = 9, All grades
[2] = 300 mg capsule BID n = 9, Grades 3/4
[3] = 400 mg tablet BID n = 2, All grades
[4] = 400 mg tablet BID n = 2, Grades 3/4
[5] = 600 mg capsule BID n = 27, All grades
[6] = 600 mg capsule BID n = 27, Grades 3/4
[7] = All patients n = 38, All grades
[8] = All patients n = 38, Grades 3/4
[9] = all patients (n = 38), all grades

## CNC(=O)c1ccc(-c2cnc3ncc(Cc4ccc5ncccc5c4)n3n2)cc1F [capmatinib]
300 mg BID capsules, first 28 days of treatment, six evaluable patients
  predefined qualifying adverse events in dose-determining stage: No qualifying AEs
[1]
  ALT increased (AE regardless of study drug relationship): 0
  AST increased (AE regardless of study drug relationship): 1 (11)
  Abdominal pain (AE regardless of study drug relationship): 2 (22)
  Acute kidney injury (AE regardless of study drug relationship): 2 (22)
  Anemia (AE regardless of study drug relationship): 3 (33)
  Ascites (AE regardless of study drug relationship): 1 (11)
  Blood bilirubin increased (AE regardless of study drug relationship): 2 (22)
  Blood creatinine increased (AE regardless of study drug relationship): 3 (33)
  Constipation (AE regardless of study drug relationship): 2 (22)
  Decreased appetite (AE regardless of study drug relationship): 3 (33)
  Diarrhea (AE regardless of study drug relationship): 5 (56)
  Fatigue (AE regardless of study drug relationship): 3 (33)
  Hyperbilirubinemia (AE regardless of study drug relationship): 0
  Hypoalbuminemia (AE regardless of study drug relationship): 2 (22)
  Insomnia (AE regardless of study drug relationship): 1 (11)
  Leukopenia (AE regardless of study drug relationship): 0
  Nausea (AE regardless of study drug relationship): 6 (67)
  Number of patients with at least one event (AE regardless of study drug relationship): 9 (100)
  Peripheral edema (AE regardless of study drug relationship): 2 (22)
  Platelet count decreased (AE regardless of study drug relationship): 0
  Pyrexia (AE regardless of study drug relationship): 1 (11)
  Vomiting (AE regardless of study drug relationship): 4 (44)
  Weight decreased (AE regardless of study drug relationship): 2 (22)
[2]
  ALT increased (AE regardless of study drug relationship): 0
  AST increased (AE regardless of study drug relationship): 1 (11)
  Abdominal pain (AE regardless of study drug relationship): 0
  Acute kidney injury (AE regardless of study drug relationship): 1 (11)
  Anemia (AE regardless of study drug relationship): 2 (22)
  Ascites (AE regardless of study drug relationship): 0
  Blood bilirubin increased (AE regardless of study drug relationship): 1 (11)
  Blood creatinine increased (AE regardless of study drug relationship): 0
  Constipation (AE regardless of study drug relationship): 0
  Decreased appetite (AE regardless of study drug relationship): 0
  Diarrhea (AE regardless of study drug relationship): 1 (11)
  Fatigue (AE regardless of study drug relationship): 0
  Hyperbilirubinemia (AE regardless of study drug relationship): 0
  Hypoalbuminemia (AE regardless of study drug relationship): 1 (11)
  Insomnia (AE regardless of study drug relationship): 0
  Leukopenia (AE regardless of study drug relationship): 0
  Nausea (AE regardless of study drug relationship): 0
  Number of patients with at least one event (AE regardless of study drug relationship): 5 (56)
  Peripheral edema (AE regardless of study drug relationship): 0
  Platelet count decreased (AE regardless of study drug relationship): 0
  Pyrexia (AE regardless of study drug relationship): 0
  Vomiting (AE regardless of study drug relationship): 1 (11)
  Weight decreased (AE regardless of study drug relationship): 0
[3]
  ALT increased (AE regardless of study drug relationship): 1 (50)
  AST increased (AE regardless of study drug relationship): 0
  Abdominal pain (AE regardless of study drug relationship): 0
  Acute kidney injury (AE regardless of study drug relationship): 0
  Anemia (AE regardless of study drug relationship): 0
  Ascites (AE regardless of study drug relationship): 0
  Blood bilirubin increased (AE regardless of study drug relationship): 0
  Blood creatinine increased (AE regardless of study drug relationship): 0
  Constipation (AE regardless of study drug relationship): 1 (50)
  Decreased appetite (AE regardless of study drug relationship): 0
  Diarrhea (AE regardless of study drug relationship): 0
  Fatigue (AE regardless of study drug relationship): 1 (50)
  Hyperbilirubinemia (AE regardless of study drug relationship): 0
  Hypoalbuminemia (AE regardless of study drug relationship): 0
  Insomnia (AE regardless of study drug relationship): 1 (50)
  Leukopenia (AE regardless of study drug relationship): 0
  Nausea (AE regardless of study drug relationship): 1 (50)
  Number of patients with at least one event (AE regardless of study drug relationship): 2 (100)
  Peripheral edema (AE regardless of study drug relationship): 0
  Platelet count decreased (AE regardless of study drug relationship): 0
  Pyrexia (AE regardless of study drug relationship): 0
  Vomiting (AE regardless of study drug relationship): 1 (50)
  Weight decreased (AE regardless of study drug relationship): 0
[4]
  ALT increased (AE regardless of study drug relationship): 1 (50)
  AST increased (AE regardless of study drug relationship): 0
  Abdominal pain (AE regardless of study drug relationship): 0
  Acute kidney injury (AE regardless of study drug relationship): 0
  Anemia (AE regardless of study drug relationship): 0
  Ascites (AE regardless of study drug relationship): 0
  Blood bilirubin increased (AE regardless of study drug relationship): 0
  Blood creatinine increased (AE regardless of study drug relationship): 0
  Constipation (AE regardless of study drug relationship): 0
  Decreased appetite (AE regardless of study drug relationship): 0
  Diarrhea (AE regardless of study drug relationship): 0
  Fatigue (AE regardless of study drug relationship): 0
  Hyperbilirubinemia (AE regardless of study drug relationship): 0
  Hypoalbuminemia (AE regardless of study drug relationship): 0
  Insomnia (AE regardless of study drug relationship): 0
  Leukopenia (AE regardless of study drug relationship): 0
  Nausea (AE regardless of study drug relationship): 0
  Number of patients with at least one event (AE regardless of study drug relationship): 1 (50)
  Peripheral edema (AE regardless of study drug relationship): 0
  Platelet count decreased (AE regardless of study drug relationship): 0
  Pyrexia (AE regardless of study drug relationship): 0
  Vomiting (AE regardless of study drug relationship): 0
  Weight decreased (AE regardless of study drug relationship): 0
[5]
  ALT increased (AE regardless of study drug relationship): 6 (22)
  AST increased (AE regardless of study drug relationship): 11 (41)
  Abdominal pain (AE regardless of study drug relationship): 3 (11)
  Acute kidney injury (AE regardless of study drug relationship): 2 (7)
  Anemia (AE regardless of study drug relationship): 5 (19)
  Ascites (AE regardless of study drug relationship): 4 (15)
  Blood bilirubin increased (AE regardless of study drug relationship): 7 (26)
  Blood creatinine increased (AE regardless of study drug relationship): 7 (26)
  Constipation (AE regardless of study drug relationship): 6 (22)
  Decreased appetite (AE regardless of study drug relationship): 9 (33)
  Diarrhea (AE regardless of study drug relationship): 8 (30)
  Fatigue (AE regardless of study drug relationship): 6 (22)
  Hyperbilirubinemia (AE regardless of study drug relationship): 4 (15)
  Hypoalbuminemia (AE regardless of study drug relationship): 6 (22)
  Insomnia (AE regardless of study drug relationship): 5 (19)
  Leukopenia (AE regardless of study drug relationship): 4 (15)
  Nausea (AE regardless of study drug relationship): 9 (33)
  Number of patients with at least one event (AE regardless of study drug relationship): 27 (100)
  Peripheral edema (AE regardless of study drug relationship): 4 (15)
  Platelet count decreased (AE regardless of study drug relationship): 4 (15)
  Pyrexia (AE regardless of study drug relationship): 5 (19)
  Vomiting (AE regardless of study drug relationship): 9 (33)
  Weight decreased (AE regardless of study drug relationship): 2 (7)
[6]
  ALT increased (AE regardless of study drug relationship): 1 (4)
  AST increased (AE regardless of study drug relationship): 8 (30)
  Abdominal pain (AE regardless of study drug relationship): 1 (4)
  Acute kidney injury (AE regardless of study drug relationship): 1 (4)
  Anemia (AE regardless of study drug relationship): 1 (4)
  Ascites (AE regardless of study drug relationship): 1 (4)
  Blood bilirubin increased (AE regardless of study drug relationship): 5 (19)
  Blood creatinine increased (AE regardless of study drug relationship): 1 (4)
  Constipation (AE regardless of study drug relationship): 0
  Decreased appetite (AE regardless of study drug relationship): 1 (4)
  Diarrhea (AE regardless of study drug relationship): 0
  Fatigue (AE regardless of study drug relationship): 0
  Hyperbilirubinemia (AE regardless of study drug relationship): 3 (11)
  Hypoalbuminemia (AE regardless of study drug relationship): 0
  Insomnia (AE regardless of study drug relationship): 0
  Leukopenia (AE regardless of study drug relationship): 0
  Nausea (AE regardless of study drug relationship): 1 (4)
  Number of patients with at least one event (AE regardless of study drug relationship): 19 (70)
  Peripheral edema (AE regardless of study drug relationship): 0
  Platelet count decreased (AE regardless of study drug relationship): 0
  Pyrexia (AE regardless of study drug relationship): 0
  Vomiting (AE regardless of study drug relationship): 1 (4)
  Weight decreased (AE regardless of study drug relationship): 0
7/38 patients
  patients with at least 1 dose reduction due to AEs: 18%
[7]
  ALT increased (AE regardless of study drug relationship): 7 (18)
  AST increased (AE regardless of study drug relationship): 12 (32)
  Abdominal pain (AE regardless of study drug relationship): 5 (13)
  Acute kidney injury (AE regardless of study drug relationship): 4 (11)
  Anemia (AE regardless of study drug relationship): 8 (21)
  Ascites (AE regardless of study drug relationship): 5 (13)
  Blood bilirubin increased (AE regardless of study drug relationship): 9 (24)
  Blood creatinine increased (AE regardless of study drug relationship): 10 (26)
  Constipation (AE regardless of study drug relationship): 9 (24)
  Decreased appetite (AE regardless of study drug relationship): 12 (32)
  Diarrhea (AE regardless of study drug relationship): 13 (34)
  Fatigue (AE regardless of study drug relationship): 10 (26)
  Hyperbilirubinemia (AE regardless of study drug relationship): 4 (11)
  Hypoalbuminemia (AE regardless of study drug relationship): 8 (21)
  Insomnia (AE regardless of study drug relationship): 7 (18)
  Leukopenia (AE regardless of study drug relationship): 4 (11)
  Nausea (AE regardless of study drug relationship): 16 (42)
  Number of patients with at least one event (AE regardless of study drug relationship): 38 (100)
  Peripheral edema (AE regardless of study drug relationship): 6 (16)
  Platelet count decreased (AE regardless of study drug relationship): 4 (11)
  Pyrexia (AE regardless of study drug relationship): 6 (16)
  Vomiting (AE regardless of study drug relationship): 14 (37)
  Weight decreased (AE regardless of study drug relationship): 4 (11)
[8]
  ALT increased (AE regardless of study drug relationship): 2 (5)
  AST increased (AE regardless of study drug relationship): 9 (24)
  Abdominal pain (AE regardless of study drug relationship): 1 (3)
  Acute kidney injury (AE regardless of study drug relationship): 2 (5)
  Anemia (AE regardless of study drug relationship): 3 (8)
  Ascites (AE regardless of study drug relationship): 1 (3)
  Blood bilirubin increased (AE regardless of study drug relationship): 6 (16)
  Blood creatinine increased (AE regardless of study drug relationship): 1 (3)
  Constipation (AE regardless of study drug relationship): 0
  Decreased appetite (AE regardless of study drug relationship): 1 (3)
  Diarrhea (AE regardless of study drug relationship): 1 (3)
  Fatigue (AE regardless of study drug relationship): 0
  Hyperbilirubinemia (AE regardless of study drug relationship): 3 (8)
  Hypoalbuminemia (AE regardless of study drug relationship): 1 (3)
  Insomnia (AE regardless of study drug relationship): 0
  Leukopenia (AE regardless of study drug relationship): 0
  Nausea (AE regardless of study drug relationship): 1 (3)
  Number of patients with at least one event (AE regardless of study drug relationship): 25 (66)
  Peripheral edema (AE regardless of study drug relationship): 0
  Platelet count decreased (AE regardless of study drug relationship): 0
  Pyrexia (AE regardless of study drug relationship): 0
  Vomiting (AE regardless of study drug relationship): 2 (5)
  Weight decreased (AE regardless of study drug relationship): 0
[9]
  diarrhea, AE regardless of causality: 34%
  nausea, AE regardless of causality: 42%
  vomiting, AE regardless of causality: 37%
All patients (n = 38), nine patients
  patients with AEs that led to discontinuation of capmatinib: 24%
Single agent, 600 mg BID capsules and 400 mg BID tablets
  tolerability: tolerable with a manageable safety profile
